Source: ChEMBL document CHEMBL4425147, “Preparation, biological evaluation and molecular docking study of imidazolyl dihydropyrimidines as potential Mycobacterium tuberculosis dihydrofolate reductase inhibitors” (Bioorg Med Chem Lett, 2016)
Values after ≈ are worked out from the molar mass of the structure shown.

Legend:
[1] = tested on: Mycobacterium tuberculosis; assay: Antitubercular activity against Mycobacterium tuberculosis H37Rv ATCC 27294 at 6.25 ug/ml by MABA; assay type: functional
Vero = assay: Cytotoxicity against African green monkey Vero cells assessed as reduction in cell viability after 72 hrs by MTT assay; assay type: cell-based; settings: Chlorocebus sabaeus
[2] = Selectivity ratio of IC50 for African green monkey Vero cells to MIC for Mycobacterium tuberculosis H37Rv ATCC 27294; assay type: toxicity; settings: read-out: Selectivity Index
[3] = tested on: Mycobacterium tuberculosis; assay: Antitubercular activity against Mycobacterium tuberculosis H37Rv ATCC 27294 by MABA; assay type: functional
[4] = tested on: Mycobacterium tuberculosis; assay: Bactericidal activity against Mycobacterium tuberculosis Erdman infected in mouse bone marrow macrophage monolayers assessed as reduction in colony forming units at 4 fold MIC concentration after 7 days; assay type: functional; settings: Erdman = ATCC 35801, 168 h
[5] = Ratio of EC90 for Mycobacterium tuberculosis Erdman infected in mouse bone marrow macrophage monolayers to MIC for Mycobacterium tuberculosis H37Rv ATCC 27294; assay type: functional
[6] = tested on: Mycobacterium tuberculosis; assay: Bacteriostatic activity against Mycobacterium tuberculosis Erdman infected in mouse bone marrow macrophage monolayers assessed as reduction in colony forming units at 4 fold MIC concentration after 7 days; assay type: functional; settings: Erdman = ATCC 35801, 168 h

Molecule `CCCCc1nc(Cl)c(C2NC(=O)NC(C)=C2C(=O)Nc2cccc(F)c2)[nH]1` (stereo not given) has an inhibition at 6.25 µg/mL [1] of 85%.
With `CCCCc1nc(Cl)c(C2NC(=O)NC(C)=C2C(=O)Nc2cccc(OC)c2)[nH]1` (stereo not given) the inhibition at 6.25 µg/mL [1] was 72%.
Work on `CCCCc1nc(Cl)c(C2NC(=O)NC(C)=C2C(=O)Nc2ccc(OC)cc2)[nH]1` (stereo not given) yielded an inhibition at 6.25 µg/mL [1] of 89%.
`CCCCc1nc(Cl)c(C2NC(=O)NC(C)=C2C(=O)Nc2cccc(C)c2)[nH]1` (stereo not given) gave an inhibition at 6.25 µg/mL [1] of 65%.
For `CCCCc1nc(Cl)c(C2NC(=O)NC(C)=C2C(=O)Nc2ccccc2F)[nH]1` (stereo not given), the IC50 (Vero) was > 10 µg/mL, the inhibition at 6.25 µg/mL [1] was 90% and the selectivity ratio [2] was > 3.12. It also gave an MIC90 [3] of 3.12 µg/mL (≈ 7.69 µM).
With `CCCCc1nc(Cl)c(C2NC(=O)NC(C)=C2C(=O)Nc2ccc(F)cc2)[nH]1` (stereo not given) the IC50 (Vero) was > 10 µg/mL, the inhibition at 6.25 µg/mL [1] was 99% and the EC99 [4] was 0.54 µg/mL. The Ratio [5] was 0.1, the EC90 [6] was 0.039 µg/mL (≈ 0.0961 µM) and the selectivity ratio [2] was > 25.6. For the same molecule, the MIC90 [3] was 0.39 µg/mL (≈ 0.961 µM).
With `NNC(=O)c1ccncc1` [ISONIAZID] the EC99 [4] was 0.42 µg/mL, the Ratio [5] was 1 and the EC90 [6] was 0.03 µg/mL (≈ 0.219 µM). For the same molecule, the selectivity ratio [2] was > 40000 and the MIC90 [3] was 0.03 to 0.06 µg/mL (≈ 0.219 to 0.438 µM).
With `CCCCc1nc(Cl)c(C2NC(=O)NC(C)=C2C(=O)Nc2ccccc2[N+](=O)[O-])[nH]1` (stereo not given) the inhibition at 6.25 µg/mL [1] was 82%.
With `CCCCc1nc(Cl)c(C2NC(=O)NC(C)=C2C(=O)Nc2ccc([N+](=O)[O-])cc2)[nH]1` (stereo not given) the IC50 (Vero) was > 10 µg/mL, the inhibition at 6.25 µg/mL [1] was 98% and the EC99 [4] was 0.59 µg/mL. The Ratio [5] was 0.09, the EC90 [6] was 0.074 µg/mL (≈ 0.171 µM) and the selectivity ratio [2] was > 12.8. For the same molecule, the MIC90 [3] was 0.78 µg/mL (≈ 1.8 µM).
`CCCCc1nc(Cl)c(C2NC(=O)NC(C)=C2C(=O)Nc2cccc([N+](=O)[O-])c2)[nH]1` (stereo not given) showed an inhibition at 6.25 µg/mL [1] of 76%.
In the case of `CCCCc1nc(Cl)c(C2NC(=O)NC(C)=C2C(=O)Nc2cccc(Cl)c2)[nH]1` (stereo not given), the inhibition at 6.25 µg/mL [1] is reported as 89%.
`CCCCc1nc(Cl)c(C2NC(=O)NC(C)=C2C(=O)Nc2ccccc2)[nH]1` (stereo not given) gave an inhibition at 6.25 µg/mL [1] of 59%.
`CCCCc1nc(Cl)c(C2NC(=O)NC(C)=C2C(=O)Nc2ccccc2C)[nH]1` (stereo not given) showed an inhibition at 6.25 µg/mL [1] of 63%.
With `CCCCc1nc(Cl)c(C2NC(=O)NC(C)=C2C(=O)Nc2ccc(C)cc2)[nH]1` (stereo not given) the inhibition at 6.25 µg/mL [1] was 72%.
`CCCCc1nc(Cl)c(C2NC(=O)NC(C)=C2C(=O)Nc2ccccc2OC)[nH]1` (stereo not given) gave an inhibition at 6.25 µg/mL [1] of 79%.
For `CCCCc1nc(Cl)c(C2NC(=O)NC(C)=C2C(=O)Nc2ccc(Cl)cc2)[nH]1` (stereo not given), the IC50 (Vero) was 9.4 µg/mL (≈ 22.3 µM), the inhibition at 6.25 µg/mL [1] was 97% and the EC99 [4] was 0.69 µg/mL. The Ratio [5] was 0.26, the EC90 [6] was 0.102 µg/mL (≈ 0.242 µM) and the selectivity ratio [2] was 24.1. It also gave an MIC90 [3] of 0.39 µg/mL (≈ 0.923 µM).
Work on `CCCCc1nc(Cl)c(C2NC(=O)NC(C)=C2C(=O)Nc2ccccc2Cl)[nH]1` (stereo not given) yielded an IC50 (Vero) of 7.6 µg/mL (≈ 18 µM), an inhibition at 6.25 µg/mL [1] of 92% and a selectivity ratio [2] of 4.87. The MIC90 [3] was 1.56 µg/mL (≈ 3.69 µM).
